The subject of assay [1] is colon adenocarcinoma line SW480. Kind of assay: SW480 cell-based antiproliferative (MTT) assay. To be noted: Homo sapiens, SW480, 144 h, 1000 cells per well, 6 days post addition of test compound, read-out: Antiproliferative Activity SW480 (colon) Assay - IC50 Range. The method, then:
(§1) The estrogen receptor negative epithelial breast carcinoma line (MDA-MB-435) was purchased from American Type Cell Culture Collection (ATCC; Rockville, Md.) and was grown in the medium recommended by ATCC. For analysis of the effect of the test compounds on growth of these cells, the cells were plated at 2000 cells per well in a 96-well tissue culture plate, and were incubated overnight at 37° C. with 5% CO2. The next day, the test compounds were dissolved in 100% dimethyl sulfoxide (DMSO) to yield a 10 mM stock solution. Each compound was diluted with sterile medium to 1 mM in a sufficient quantity to yield a final concentration of 120 μM. The compounds were then serially diluted in medium with 1.2% DMSO. One-fourth final volume of the diluted compounds was transferred to 96 well plates. Test compounds were assayed in duplicate. DMSO was added to a row of “control cells” such that the final concentration of DMSO in each well was 0.3%. Wells to which no cells were added served as the “blank.” Wells to which no inhibitor was added served as “no inhibitor control”. The plates were returned to the incubator, and 5 days post addition of test compound, were analyzed as described below.
(§2) 3-(4,5-Dimethylthiazole-2-yl)-2,5-diphenyl-2H-tetrazolium bromide (thiazolyl blue; MTT) was added to each well to yield a final concentration of 1 mg/mL. The plates were then incubated at 37° C. for 3 hours. The plates were centrifuged at 1000 rpm for 5 minutes prior to aspiration of the MTT-containing medium. The MTT-containing medium was then removed and 100 μL 100% ethanol was added to each well to dissolve the resulting formazan metabolite. To ensure complete dissolution, plates were shaken for 15 minutes at room temperature. Absorbencies were read in a microtiter plate reader (Molecular Dynamics) at a wavelength of 570 nm with a 650 nm reference. Percent inhibition was calculated by subtracting the absorbance of the blank (no cell) wells from all wells, then subtracting the division of the average absorbance of each test duplicate by the average of the controls from 1.00. Inhibitory concentrations (IC50) were determined from the linear regression of a plot of the logarithm of the concentration versus the percent inhibition.
(§3) The colon adenocarcinoma line SW480 and the colon carcinoma line HCT-116 also were obtained from the ATCC and were tested according to the same protocol provided above for MDA-MB435 cell based assay with the following modifications. Cell line SW480 was plated at 1000 cells per well and analyzed at 6 days post addition of the test compound. Cell line HCT-116 was plated at 1000 cells per well and analyzed at 4 days post addition of test compound.

Assay [2] relates to colon carcinoma line HCT-116. Kind of assay: HCT-116 cell-based antiproliferative (MTT) assay. Conditions: Homo sapiens, HCT-116, 96 h, 1000 cells per well, 4 days post addition of test compound, read-out: Antiproliferative Activity HCT 116 (colon) Assay - IC50 Range. Here is the method: as §1, §2, §3
In assay [3] the target is T1, Recombinant active human Cyclin E/CDK2 complexes (Homo sapiens, UniProt P24941).
T1 construct: made in house; host or cells: insect cells
Kind of assay: CDK2 FlashPlate Assay (inhibition of Rb phosphorylation). The format is biochemical. To be noted: Cyclin E/CDK2, Rb substrate, 33P-ATP, 25 minutes at room temperature; read-out: Inhibition of Cdk2 - IC50 Range. Here is the method:
To determine inhibition of CDK2 activity, purified recombinant retinoblastoma (Rb) protein was coated on 96 well FlashPlates (New England Nuclear, Boston, Mass.). Rb is a natural substrate for phosphorylation by CDK2 (Herwig and Strauss Eurr. J. Biochem., Vol. 246 (1997) pp. 581-601 and references therein). Recombinant active human Cyclin E/CDK2 complexes were partially purified from extracts of insect cells. The active Cyclin E/CDK2 was added to the Rb-coated FlashPlates along with ^33P-ATP and dilutions of test compounds. Plates were incubated for 25 minutes at room temperature with shaking, then washed and counted in the Topcount scintillation counter (Packard Instrument Co., Downers Grove, Ill.). Dilutions of test compounds were tested in duplicate in each assay. The percent inhibition of Rb phosphorylation, which is a measure of the inhibition of CDK2 activity, was determined according to the following formula: [formula] where “test compound” refers to the average counts per minute of the test duplicates, “nonspecific” refers to the average counts per minute when no Cyclin E/CDK2 was added, and “total” refers to the average counts per minute when no compound was added.

The test system of assay [4] is estrogen receptor negative epithelial breast carcinoma line (MDA-MB-435). Kind of assay: MDA-MB-435 cell-based antiproliferative (MTT) assay. To be noted: Homo sapiens, MDA-MB-435, 120 h, 2000 cells per well, 5 days post addition of test compound, read-out: Antiproliferative Activity of MDA-MB435 (breast) Assay - IC50 Range. The method, then:
as §1, §2

Consider `O=[N+]([O-])c1ccc2c(c1)C(c1ccccc1Cl)=Nc1c(n[nH]c1-c1ccco1)N2` [Compound D7], for which the IC50 (usually the concentration that gives 50% inhibition) was in the range of 10000 to 30000 nM in assay [1], 10000 to 30000 nM in assay [2] and 10 to 990 nM in assay [3].

Consider `CSc1ccc(-c2[nH]nc3c2N=C(c2ccccc2Cl)c2cc([N+](=O)[O-])ccc2N3)cc1` [Compound D11], for which the IC50 is 10000 to 30000 nM in assay [2] and 10 to 990 nM in assay [3].

In the case of `Cc1[nH]nc2c1N=C(c1ccccc1F)c1cc([N+](=O)[O-])ccc1N2` [Compound B31, 3-methyl-5-(2-fluorophenyl)-7-nitro-pyrazolo[3,4][1,4]benzodiazepine], the IC50 is 10 to 1000 nM in assay [1], 10 to 1000 nM in assay [4] and 10 to 990 nM in assay [3].

On to `Cc1[nH]nc2c1N=C(c1ccccc1F)c1cc(I)ccc1N2` [Compound B29, 3-methyl-5-(2-fluorophenyl)-7-iodo-pyrazolo[3,4][1,4]benzodiazepine], for which the figures for the concentration for half-maximal inhibition (IC50) in assay [1], in assay [4] and in assay [3] were 1100 to 9990 nM, 10 to 1000 nM and 10 to 990 nM, respectively.

Take `COc1ccc2c(c1)C(c1ccccc1Cl)=Nc1c(n[nH]c1C)N2` [Compound B18, 3-methyl-5-(2-chlorophenyl)-7-methoxy-pyrazolo[3,4][1,4]benzodiazepine]: the IC50 in assay [1] lay in the range of 1100 to 9990 nM; in assay [4], 1100 to 9990 nM; in assay [3], 10 to 990 nM.

As to `Cc1[nH]nc2c1N=C(c1ccccc1)c1cc(F)ccc1N2` [Compound B22, 3-methyl-5-phenyl-7-fluoro-pyrazolo[3,4][1,4]benzodiazepine], the IC50 fell in the range of 1100 to 9990 nM in assay [1], 10 to 1000 nM in assay [4] and 10 to 990 nM in assay [3].

In the case of `CC(=O)Nc1ccc2c(c1)C(c1ccccc1Cl)=Nc1c(n[nH]c1C)N2` [Compound C7, N-(3-methyl-5-(2-chlorophenyl)-pyrazolo[3,4][1,4]benzodiazepin-7-yl)-acetamide], the IC50 in assay [1] fell in the range of 10 to 1000 nM; in assay [4] it was 10 to 1000 nM; in assay [3] it was 10 to 990 nM.

As to `Cc1[nH]nc2c1N=C(c1ccccc1Cl)c1cc(Cl)ccc1N2` [Compound B20, 3-methyl-5-(2-chlorophenyl)-7-chloro-pyrazolo[3,4][1,4]benzodiazepine], the IC50 is 1100 to 9990 nM in assay [1], 1100 to 9990 nM in assay [4] and 10 to 990 nM in assay [3].

Regarding `Cc1[nH]nc2c1N=C(c1ccccc1)c1cc(Cl)ccc1N2` [Compound B19, 3-methyl-5-phenyl-7-chloro-pyrazolo[3,4][1,4]benzodiazepine], the IC50 is 1100 to 9990 nM in assay [1], 1100 to 9990 nM in assay [4] and 10 to 990 nM in assay [3].

In the case of `N#Cc1ccc2c(c1)C(c1ccccc1F)=Nc1c(n[nH]c1CO)N2` [Compound B35, 3-hydroxymethyl-5-(2-fluorophenyl)-pyrazolo[3,4][1,4]-benzodiazepine-7-carbonitrile], the IC50 is 10 to 1000 nM in assay [1], 10 to 1000 nM in assay [4] and 10 to 990 nM in assay [3].

In the case of `Cc1[nH]nc2c1N=C(c1ccccc1Cl)c1ccccc1N2` [Compound B30, 3-methyl-5-(2-chlorophenyl)-pyrazolo[3,4][1,4]benzodiazepine], the IC50 in assay [1] fell in the range of 1100 to 9990 nM; in assay [4], 1100 to 9990 nM; in assay [3], 10 to 990 nM.

Consider `O=Cc1[nH]nc2c1N=C(c1ccccc1Cl)c1cc([N+](=O)[O-])ccc1N2` [Compound C13, 5-(2-chlorophenyl)-7-nitro-pyrazolo[3,4][1,4]benzodiazepine-3-carboxaldehyde], for which the IC50 in assay [4] lay within 10 to 1000 nM; in assay [3], 10 to 990 nM.

On to `Cc1[nH]nc2c1N=C(c1ccccc1Cl)c1cc(NS(C)(=O)=O)ccc1N2` [Compound C9, N-(3-methyl-5-(2-chlorophenyl)-pyrazolo[3,4][1,4]benzodiazepin-7-yl)-methanesulfonamide], for which the concentration for half-maximal inhibition (IC50) in assay [1] is 10 to 1000 nM; in assay [4], 10 to 1000 nM; in assay [3], 10 to 990 nM.

With `COCc1[nH]nc2c1N=C(c1ccccc1Cl)c1cc([N+](=O)[O-])ccc1N2` [Compound C16, 3-methoxymethyl-5-(2-chlorophenyl)-7-nitro-pyrazolo[3,4][1,4]benzodiazepine], the results for the IC50 in assay [4] and in assay [3] were 1100 to 9990 nM and 10 to 990 nM, respectively.

In the case of `O=C(NCCO)c1ccc2c(c1)C(c1ccccc1F)=Nc1c[nH]nc1N2` [Compound C2, N-(2-hydroxyethyl)-5-(2-fluorophenyl)-pyrazolo[3,4][1,4]benzodiazepine-7-carboxamide], the IC50 in assay [2] fell in the range of 10000 to 30000 nM; in assay [3] it was 10 to 990 nM.

Turning to `C=CC(=O)Nc1ccc2c(c1)C(c1ccccc1Cl)=Nc1c(n[nH]c1C)N2` [Compound C8, N-(3-methyl-5-(2-chlorophenyl)-pyrazolo[3,4][1,4]benzodiazepin-7-yl)-2-propenamide], the figures for the concentration for half-maximal inhibition (IC50) in assay [1], in assay [4] and in assay [3] were 10 to 1000 nM, 10 to 1000 nM and 10 to 990 nM, respectively.

Consider `Cc1[nH]nc2c1N=C(c1ccccc1Cl)c1cc(N)ccc1N2` [Compound C4], for which the IC50 was 10 to 1000 nM in assay [1], 10 to 1000 nM in assay [4] and 10 to 990 nM in assay [3].

As to `O=[N+]([O-])c1ccc2c(c1)C(c1ccccc1)=Nc1c[nH]nc1N2` [Compound A16, 5-phenyl-7-nitro-pyrazolo[3,4][1,4]benzodiazepine], the results for the IC50 in assay [2] and in assay [3] were 10000 to 30000 nM and 10 to 990 nM, respectively.

Take `Cc1[nH]nc2c1N=C(c1ccccc1F)c1ccccc1N2` [Compound B21, 3-methyl-5-(2-fluorophenyl)-pyrazolo[3,4][1,4]benzodiazepine]: the values for the IC50 in assay [1], in assay [4] and in assay [3] were 10 to 1000 nM, 1100 to 9990 nM and 10 to 990 nM, respectively.

For `CS(=O)(=O)c1ccc2c(c1)C(c1ccccc1)=Nc1c[nH]nc1N2` [Compound A14, 5-phenyl-7-methanesulfonyl-pyrazolo[3,4][1,4]benzodiazepine], the IC50 in assay [2] is 10000 to 30000 nM; in assay [3], 1000 to 9990 nM.

`O=[N+]([O-])c1ccc2c(c1)C(c1ccccc1Cl)=Nc1c(n[nH]c1CO)N2` [Compound C14, 3-hydroxymethyl-5-(2-chlorophenyl)-7-nitro-pyrazolo[3,4][1,4]benzodiazepine]: the results for the IC50 in assay [1], in assay [4] and in assay [3] were 10 to 1000 nM, 10 to 1000 nM and 10 to 990 nM, respectively.

For `N#Cc1[nH]nc2c1N=C(c1ccccc1Cl)c1cc([N+](=O)[O-])ccc1N2` [Compound C18, 5-(2-chlorophenyl)-7-nitro-pyrazolo[3,4][1,4]benzodiazepine-3-carbonitrile], the IC50 in assay [4] was in the range of 10000 to 30000 nM; in assay [3], 10 to 990 nM.

Turning to `CC(C)c1[nH]nc2c1N=C(c1ccccc1Cl)c1cc(N)ccc1N2` [Compound C6, 3-(1-methylethyl)-5-(2-chlorophenyl)-7-amino-pyrazolo[3,4][1,4]benzodiazepine], the IC50 was in the range of 1100 to 9990 nM in assay [4] and 10 to 990 nM in assay [3].

Consider `O=[N+]([O-])c1ccc2c(c1)C(c1ccccc1)=Nc1c(n[nH]c1C1CC1)N2` [Compound D18], for which the IC50 in assay [2] lay within 10000 to 30000 nM; in assay [3], 10 to 990 nM.

Regarding `CCOC(=O)c1[nH]nc2c1N=C(c1ccccc1Cl)c1cc([N+](=O)[O-])ccc1N2` [Compound B2, 3-carboethoxy-5-(2-chlorophenyl)-7-nitro-pyrazolo[3,4][1,4]benzodiazepine], the figures for the IC50 in assay [4] and in assay [3] were 10000 to 30000 nM and 1000 to 9990 nM, respectively.

The values above are taken from patent US6916923B2 (Hoffmann-La Roche Inc., priority 1999, dated 2005).
